What all share (settings): read-out: pA2 (converted)
For assay [1], the target named is T1, Substance-K receptor (Oryctolagus cuniculus, UniProt P79218).
T1 sequence (P79218 whole entry): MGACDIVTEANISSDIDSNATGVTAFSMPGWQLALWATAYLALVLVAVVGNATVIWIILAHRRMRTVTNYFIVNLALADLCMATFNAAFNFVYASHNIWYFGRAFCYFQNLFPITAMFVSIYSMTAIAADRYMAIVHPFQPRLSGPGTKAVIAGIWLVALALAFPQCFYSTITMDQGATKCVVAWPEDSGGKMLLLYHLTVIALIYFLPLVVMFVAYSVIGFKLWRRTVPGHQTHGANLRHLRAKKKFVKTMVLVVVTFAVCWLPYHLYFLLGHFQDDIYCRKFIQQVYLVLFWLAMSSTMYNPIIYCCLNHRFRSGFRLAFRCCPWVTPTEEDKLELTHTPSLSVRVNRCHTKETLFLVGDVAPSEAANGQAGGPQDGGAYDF
Description: Antagonist activity against Tachykinin receptor 2 was measured by Rabbit pulmonary artery(RPA) assay. Format: functional.

The target of assay [2] is T2, Substance-K receptor (Mesocricetus auratus, UniProt P51144).
T2 sequence (P51144 whole entry): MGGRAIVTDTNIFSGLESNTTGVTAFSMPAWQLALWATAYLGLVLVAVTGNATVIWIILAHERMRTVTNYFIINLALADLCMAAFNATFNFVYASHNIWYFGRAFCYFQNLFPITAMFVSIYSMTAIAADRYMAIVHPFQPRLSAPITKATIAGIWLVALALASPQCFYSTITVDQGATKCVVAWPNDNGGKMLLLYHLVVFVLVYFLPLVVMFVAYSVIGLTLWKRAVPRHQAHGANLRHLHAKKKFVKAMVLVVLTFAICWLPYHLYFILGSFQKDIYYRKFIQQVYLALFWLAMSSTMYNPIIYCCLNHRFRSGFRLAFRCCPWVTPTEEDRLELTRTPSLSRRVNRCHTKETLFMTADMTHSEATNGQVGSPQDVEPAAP
Description: Antagonist activity against Tachykinin receptor 2 was measured by Hamster isolated trachea(HT) assay. The format is functional, tissue-based.

For assay [3], the target named is T3, Substance-K receptor (Rattus norvegicus, UniProt P16610).
T3 sequence (P16610 whole entry): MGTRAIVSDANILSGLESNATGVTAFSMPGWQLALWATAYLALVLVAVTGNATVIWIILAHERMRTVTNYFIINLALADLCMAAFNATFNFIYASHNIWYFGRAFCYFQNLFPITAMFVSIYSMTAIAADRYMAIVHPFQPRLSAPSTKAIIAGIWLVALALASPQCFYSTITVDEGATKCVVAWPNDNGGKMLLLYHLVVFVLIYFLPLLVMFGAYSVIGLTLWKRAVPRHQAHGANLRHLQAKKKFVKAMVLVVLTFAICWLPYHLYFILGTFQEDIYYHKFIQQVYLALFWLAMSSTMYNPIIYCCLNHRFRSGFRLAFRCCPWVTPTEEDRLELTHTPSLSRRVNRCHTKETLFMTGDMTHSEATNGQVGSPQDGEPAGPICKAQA
Kind of assay: Antagonism against Tachykinin receptor 2 in rat vas deferens(RVD). The format is functional.

On to `CSCC[C@H](NC(=O)[C@H](CC(C)C)NC(=O)CNC(=O)[C@@H](Cc1c[nH]c2ccccc12)NC(=O)[C@H](Cc1ccccc1)NC(=O)[C@H](Cc1ccc(O)cc1)NC(=O)[C@@H](N)CC(=O)O)C(=O)O`, for which the Kb at Substance-K receptor [1] was 100000 nM; on Substance-K receptor [2], 14800 nM; at Substance-K receptor [3], 14100 nM.

Consider `CC(C)[C@H](NC(=O)[C@H](Cc1c[nH]c2ccccc12)NC(=O)[C@H](Cc1ccc(O)cc1)NC(=O)[C@@H](N)CC(=O)O)C(=O)N[C@H](Cc1c[nH]c2ccccc12)C(=O)N[C@H](Cc1c[nH]c2ccccc12)C(=O)N[C@@H](CCCN=C(N)N)C(=O)O`, for which the values for the Kb at Substance-K receptor [1], at Substance-K receptor [2] and on Substance-K receptor [3] were 100000 nM, 15500 nM and 25700 nM, respectively.

As for `C[C@H](NC(=O)[C@@H](Cc1c[nH]c2ccccc12)NC(=O)[C@H](Cc1ccc(O)cc1)NC(=O)[C@@H](N)CC(=O)O)C(=O)N[C@H](Cc1c[nH]c2ccccc12)C(=O)N[C@H](Cc1c[nH]c2ccccc12)C(=O)N[C@@H](CCCCN)C(=O)O`, the Kb on Substance-K receptor [1] is 1350 nM; at Substance-K receptor [2] it was 355 nM; at Substance-K receptor [3], 295 nM.

`CC(C)[C@H](NC(=O)[C@@H](Cc1c[nH]c2ccccc12)NC(=O)[C@H](Cc1ccc(O)cc1)NC(=O)[C@@H](N)CC(N)=O)C(=O)N[C@H](Cc1c[nH]c2ccccc12)C(=O)N[C@H](Cc1c[nH]c2ccccc12)C(=O)N[C@@H](CCCN=C(N)N)C(=O)O`: the Kb is 64.6 nM at Substance-K receptor [1], 1170 nM on Substance-K receptor [2] and 347 nM on Substance-K receptor [3].

`CSCC[C@H](NC(=O)[C@@H](Cc1c[nH]c2ccccc12)NC(=O)[C@@H](Cc1c[nH]c2ccccc12)NC(=O)[C@@H](NC(=O)[C@@H](Cc1c[nH]c2ccccc12)NC(=O)[C@H](Cc1ccc(O)cc1)NC(=O)[C@@H](N)CC(=O)O)C(C)C)C(=O)O`: the Kb at Substance-K receptor [1] is 89.1 nM; on Substance-K receptor [2], 1450 nM; at Substance-K receptor [3] it was 380 nM.

As to `CC(C)[C@H](NC(=O)[C@@H](Cc1c[nH]c2ccccc12)NC(=O)[C@@H](Cc1c[nH]c2ccccc12)NC(=O)[C@@H](N)CC(=O)O)C(=O)N[C@H](Cc1c[nH]c2ccccc12)C(=O)N[C@H](Cc1c[nH]c2ccccc12)C(=O)N[C@@H](CCCN=C(N)N)C(=O)O`, the Kb is 100000 nM at Substance-K receptor [1], 31600 nM at Substance-K receptor [2] and 2400 nM at Substance-K receptor [3].

For the compound `CC(C)[C@H](NC(=O)[C@@H](Cc1c[nH]c2ccccc12)NC(=O)[C@H](Cc1ccc(O)cc1)NC(=O)[C@@H](N)CC(=O)O)C(=O)NCC(=O)N[C@H](Cc1c[nH]c2ccccc12)C(=O)N[C@@H](CCCN=C(N)N)C(=O)O`, the figures for the Kb on Substance-K receptor [1], at Substance-K receptor [2] and on Substance-K receptor [3] were 19500 nM, 6310 nM and 18600 nM, respectively.

Turning to `CSCC[C@H](NC(=O)[C@H](CC(C)C)NC(=O)CNC(=O)[C@@H](Cc1c[nH]c2ccccc12)NC(=O)[C@H](Cc1ccccc1)NC(=O)[C@@H](Cc1c[nH]c2ccccc12)NC(=O)[C@@H](N)CC(=O)O)C(=O)O`, the Kb is 5890 nM at Substance-K receptor [1], 9120 nM at Substance-K receptor [2] and 7760 nM at Substance-K receptor [3].

On to `CC(C)[C@H](NC(=O)[C@@H](Cc1c[nH]c2ccccc12)NC(=O)[C@H](CCCCN)NC(=O)[C@@H](N)CC(=O)O)C(=O)N[C@H](Cc1c[nH]c2ccccc12)C(=O)N[C@H](Cc1c[nH]c2ccccc12)C(=O)N[C@@H](CCCCN)C(=O)O`, for which the Kb on Substance-K receptor [1] is 100000 nM; at Substance-K receptor [2], 4170 nM.

For `CC(C)[C@H](NC(=O)[C@@H](Cc1c[nH]c2ccccc12)NC(=O)[C@H](Cc1ccc(O)cc1)NC(=O)[C@@H](N)CC(=O)O)C(=O)N[C@H](Cc1c[nH]c2ccccc12)C(=O)N[C@H](Cc1c[nH]c2ccccc12)C(=O)N[C@H](Cc1c[nH]c2ccccc12)C(=O)O`, the Kb at Substance-K receptor [1] is 1620 nM; at Substance-K receptor [2] it was 1380 nM; on Substance-K receptor [3] it was 155 nM.

As to `CC(C)[C@H](NC(=O)[C@@H](Cc1c[nH]c2ccccc12)NC(=O)[C@H](Cc1ccc(O)cc1)NC(=O)[C@@H](N)CC(=O)O)C(=O)N[C@H](Cc1c[nH]c2ccccc12)C(=O)N[C@H](Cc1c[nH]c2ccccc12)C(=O)N[C@@H](Cc1ccccc1)C(=O)O`, the Kb is 1260 nM at Substance-K receptor [1], 933 nM on Substance-K receptor [2] and 288 nM on Substance-K receptor [3].

With `CC(C)[C@H](NC(=O)[C@@H](Cc1c[nH]c2ccccc12)NC(=O)[C@H](Cc1ccc(O)cc1)NC(=O)[C@@H](N)CC(=O)O)C(=O)N[C@H](Cc1c[nH]c2ccccc12)C(=O)N[C@H](Cc1c[nH]c2ccccc12)C(=O)N[C@@H](CCC(=O)O)C(=O)O`, the Kb at Substance-K receptor [1] is 2630 nM; on Substance-K receptor [2] it was 427 nM; on Substance-K receptor [3] it was 30.9 nM.

Regarding H-DYYVYYR-OH, the results for the Kb on Substance-K receptor [1], on Substance-K receptor [2] and on Substance-K receptor [3] were 100000 nM, 100000 nM and 9330 nM, respectively.

`CSCC[C@H](NC(=O)[C@@H](Cc1c[nH]c2ccccc12)NC(=O)[C@@H](Cc1c[nH]c2ccccc12)NC(=O)[C@@H](NC(=O)[C@@H](Cc1c[nH]c2ccccc12)NC(=O)[C@H](CO)NC(=O)[C@@H](N)CC(=O)O)C(C)C)C(=O)O`: the results for the Kb on Substance-K receptor [1], at Substance-K receptor [2] and on Substance-K receptor [3] were 4790 nM, 6460 nM and 1950 nM, respectively.

As to H-DYPVWWR-OH, the Kb at Substance-K receptor [1] is 12900 nM; on Substance-K receptor [2], 17400 nM; on Substance-K receptor [3], 4370 nM.

In the case of `CC(C)[C@@H](NC(=O)[C@@H](Cc1c[nH]c2ccccc12)NC(=O)[C@@H](Cc1ccc(O)cc1)NC(=O)[C@@H](N)CC(=O)O)C(=O)N[C@H](Cc1c[nH]c2ccccc12)C(=O)N[C@H](Cc1c[nH]c2ccccc12)C(=O)N[C@H](CCCN=C(N)N)C(=O)O`, the results for the Kb on Substance-K receptor [1], at Substance-K receptor [2] and on Substance-K receptor [3] were 407 nM, 1100 nM and 851 nM, respectively.

On to `CC(C)C[C@H](NC(=O)[C@@H](Cc1c[nH]c2ccccc12)NC(=O)[C@@H](Cc1c[nH]c2ccccc12)NC(=O)[C@@H](NC(=O)[C@@H](Cc1c[nH]c2ccccc12)NC(=O)[C@H](Cc1ccc(O)cc1)NC(=O)[C@@H](N)CC(=O)O)C(C)C)C(=O)O`, for which the Kb on Substance-K receptor [1] was 1620 nM; on Substance-K receptor [2], 1200 nM; at Substance-K receptor [3] it was 79.4 nM.

Take `CC(C)[C@H](NC(=O)[C@@H](Cc1c[nH]c2ccccc12)NC(=O)[C@H](Cc1ccc(O)cc1)NC(=O)[C@@H](N)CC(=O)O)C(=O)N[C@H](Cc1c[nH]c2ccccc12)C(=O)N[C@H](Cc1c[nH]c2ccccc12)C(=O)N[C@@H](CCCN=C(N)N)C(=O)O`: the values for the Kb on Substance-K receptor [1], at Substance-K receptor [2] and on Substance-K receptor [3] were 22.4 nM, 1580 nM and 251 nM, respectively.

For the compound `CC(C)[C@H](NC(=O)[C@@H](Cc1c[nH]c2ccccc12)NC(=O)[C@H](Cc1ccc(O)cc1)NC(=O)[C@@H](N)CCC(N)=O)C(=O)N[C@H](Cc1c[nH]c2ccccc12)C(=O)N[C@H](Cc1c[nH]c2ccccc12)C(=O)N[C@@H](Cc1ccccc1)C(=O)O`, the Kb on Substance-K receptor [1] was 1660 nM; on Substance-K receptor [2], 1740 nM.

With `CC(C)[C@H](NC(=O)[C@@H](Cc1c[nH]c2ccccc12)NC(=O)[C@H](Cc1ccc(O)cc1)NC(=O)[C@@H](N)CC(=O)O)C(=O)N[C@H](Cc1c[nH]c2ccccc12)C(=O)N[C@H](Cc1c[nH]c2ccccc12)C(=O)N[C@@H](Cc1ccc(O)cc1)C(=O)O`, the Kb is 100000 nM at Substance-K receptor [1], 1740 nM at Substance-K receptor [2] and 191 nM on Substance-K receptor [3].

For `CC(C)[C@H](NC(=O)[C@@H](Cc1c[nH]c2ccccc12)NC(=O)[C@H](Cc1c[nH]c2ccccc12)NC(=O)[C@@H](N)CC(=O)O)C(=O)N[C@H](Cc1c[nH]c2ccccc12)C(=O)N[C@H](Cc1c[nH]c2ccccc12)C(=O)N[C@@H](CCCN=C(N)N)C(=O)O`, the Kb on Substance-K receptor [1] was 6310 nM; on Substance-K receptor [2] it was 11200 nM; on Substance-K receptor [3], 339 nM.

As for `CC(C)[C@@H](NC(=O)[C@@H](Cc1c[nH]c2ccccc12)NC(=O)[C@@H](Cc1ccc(O)cc1)NC(=O)[C@@H](N)CC(=O)O)C(=O)NCC(=O)N[C@H](Cc1c[nH]c2ccccc12)C(=O)N[C@H](CCCN=C(N)N)C(=O)O`, the values for the Kb at Substance-K receptor [1], at Substance-K receptor [2] and at Substance-K receptor [3] were 263 nM, 562 nM and 380 nM, respectively.

With `CC(C)[C@H](NC(=O)[C@@H](Cc1c[nH]c2ccccc12)NC(=O)[C@H](Cc1ccc(O)cc1)NC(=O)[C@@H](N)CC(=O)O)C(=O)N[C@H](Cc1c[nH]c2ccccc12)C(=O)N[C@H](Cc1c[nH]c2ccccc12)C(=O)NCC(=O)O`, the Kb at Substance-K receptor [1] is 1480 nM; at Substance-K receptor [2], 141 nM; at Substance-K receptor [3], 34.7 nM.

With `CC(C)C[C@H](NC(=O)[C@@H](Cc1c[nH]c2ccccc12)NC(=O)[C@@H](NC(=O)[C@@H](Cc1c[nH]c2ccccc12)NC(=O)[C@H](Cc1ccc(O)cc1)NC(=O)[C@@H](N)CC(=O)O)C(C)C)C(=O)N[C@@H](CCCN=C(N)N)C(=O)O`, the Kb on Substance-K receptor [1] is 191 nM; at Substance-K receptor [2] it was 646 nM; at Substance-K receptor [3], 224 nM.

These data come from ChEMBL document CHEMBL1128468, “Amino acid side chain descriptors for quantitative structure-activity relationship studies of peptide analogues” (J Med Chem, 1995).
